Results on 17 compounds are retold here after patent US10889569B2, “Condensed ring group azacyclobutyl triazole derivative, preparation method therefor and use thereof in medicine” (Jiangsu Hengrui Medicine Co., Ltd., priority 2016, dated 2021).

Data set [1] addresses human V1aR (Homo sapiens (Human), UniProt P37288). The data set can be described thus: Inhibition activity on human V1aR (Fluo-4 calcium assay, HEK293/human V1aR stably transfected cells). Type of data set: cell-based. The conditions noted are these: vasopressin 3 nM. As to the method: The inhibition effect of the compounds of the present invention on the activity of human V1 aR protein expressed in HEK293/human V1aR stably transfected cells was determined by the following experimental method:
The pcDNA3.1-V1aR plasmid was transferred into HEK293 cells with the Lipofectamine® 3000 transfection reagent; G418 was added on the next day to screen, and monoclonal cell lines were selected.
(§1) HEK293/human V1aR stably transfected cells were inoculated in a 96-well plate with an inoculation density of 25,000 cells/well one day in advance. On the next day, a loading buffer containing Fluo-4 dye was formulated using the reagents in the Fluo-4 NW calcium assay kit, and the culture medium was then removed; 100 μl of the loading buffer containing Fluo-4 dye were added to each well, and the plate was incubated at 37° C. for 30 minutes. After that, the plate was moved to room temperature and equilibrated for 10 minutes. The compounds were formulated at 10^6, 10^5, 10^4, 10^3, 10^2 and 10^1 nM. 1 μl of the compounds in each concentration was added to each well, and the plate was incubated at room temperature for 10 minutes. 50 μl of vasopressin polypeptide (3 nM) were automatically added by the machine, and the values were immediately detected at 494/516 nM by the flexstation 3 microplate reader. IC50 values of the compounds were calculated by Graphpad prism software using fluorescence signals corresponding to different concentrations.
The inhibition activity of the compounds of the present invention on human V1aR was determined by the above test, and the obtained IC50 values are shown in Table 2.

Data set [2] deals with human OTR (Homo sapiens, UniProt P30559). Put plainly: Inhibition activity on human OTR (Fluo-4 calcium assay, HEK293/human OTR stably transfected cells). Type of data set: cell-based. The conditions noted are these: oxytocin 3 nM. The protocol:
The inhibition effect of the compounds of the present invention on the activity of human OTR protein expressed in HEK293/human OTR stably transfected cells was determined by the following experimental method:
The pcDNA3.1-hOTR plasmid was transferred into HEK293 cells with the Lipofectamine® 3000 transfection reagent; G418 was added on the next day to screen, and monoclonal cell lines were selected.
as §1, with “OTR” for “V1aR”, “oxytocin” for “vasopressin”
The inhibition activity of the compounds of the present invention on human OTR was determined by the above test, and the obtained IC50 values are shown in Table 1.

Data set [3] is described as follows: Pharmacokinetics assay in rats after intragastrical administration. It counts as in vivo, SD rats. The conditions noted are these: Sprague-Dawley, rat, plasma, po, 30 mg/kg, intragastric, male rats; for Vd/F: read-out: Apparent distribution volume Vz/F; for AUC: read-out: Area under curve AUC; for CL/F: read-out: Clearance CLz/F; for half-life: read-out: Half-life T1/2 (converted); for Cmax: read-out: Plasma concentration Cmax; for MRT: read-out: Residence time MRT. The protocol: Male SD rats were used as test animals. The drug concentration in plasma at different time points was determined by LC/MS/MS method after intragastrical administration of the compounds of Examples 2, 17, 34, 37, 38, 39 and 43 to rats. The pharmacokinetic behavior of the compounds of the present invention was studied and evaluated in rats.
Twenty-one healthy adult male Sprague-Dawley (SD) rats were purchased from Shanghai Jiesijie Laboratory Animal Co., LTD, with Certificate No.: SCXK (Shanghai) 2013-0006, and equally divided into 7 groups (3 rats per group).
A certain amount of the test compound was weighed, and added with 2.5% by volume of DMSO and 97.5% by volume of 10% solutol HS-15 to formulate a […] colorless, clear and transparent solution.
After an overnight fast, SD rats were administered intragastrically the test compounds at an administration dosage of 30.0 mg/kg and an administration volume of 10.0 mL/kg.
The rats were intragastrically administered the compounds of Examples 2, 17, 34, 37, 38, 39 and 43. 0.2 mL of blood was taken from the orbital sinus before administration and at 0.5, 1.0, 2.0, 4.0, 6.0, 8.0, 11.0 and 24.0 hours after administration. The samples were stored in heparinized tubes, and centrifuged for 10 minutes at 4° C. at 3500 rpm to separate the plasma. The plasma samples were stored at −20° C. The rats were fed 2 hours after administration.
The content of the test compounds in the plasma of rats after intragastrical administration of the test compounds at different concentrations was determined: 50 μL of rat plasma at each time after administration was taken, added with 50 μL of the internal standard solution of camptothecin (100 ng/mL) and 150 μL of acetonitrile, vortex-mixed for 5 minutes, and centrifuged for 10 minutes (4000 rpm). 3 μL of the supernatant was taken from the plasma samples for LC/MS/MS analysis.

human V1aR, sequence (P37288 whole entry): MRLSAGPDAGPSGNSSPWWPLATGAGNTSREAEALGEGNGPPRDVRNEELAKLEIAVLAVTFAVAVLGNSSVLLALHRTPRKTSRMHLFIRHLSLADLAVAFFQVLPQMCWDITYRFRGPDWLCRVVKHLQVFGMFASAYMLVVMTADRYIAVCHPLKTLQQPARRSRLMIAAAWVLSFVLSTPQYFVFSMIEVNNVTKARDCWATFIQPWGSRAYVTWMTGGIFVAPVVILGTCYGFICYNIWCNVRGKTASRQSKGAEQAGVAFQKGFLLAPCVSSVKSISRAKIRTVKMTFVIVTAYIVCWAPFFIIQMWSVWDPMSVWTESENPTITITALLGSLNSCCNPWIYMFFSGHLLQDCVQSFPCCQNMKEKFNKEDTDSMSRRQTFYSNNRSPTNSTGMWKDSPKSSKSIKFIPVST

For orientation: IC50 means the concentration that inhibits the measured activity by half. `COCc1nnc(N2CC(n3cc(Cl)c4cc(F)ccc43)C2)n1-c1ccc2c(c1)OCO2` [Example 3, 1-(1-(4-(Benzo[d][1,3]dioxolan-5-yl)-5-(methoxymethyl)-4H-1,2,4-triazol-3-yl)azetidin-3-yl)-3-chloro-5-fluoro-1H-indole]: the IC50 in data set [1] was 7 µM.
On the same count and under the same terms, in the case of `CCOCc1nnc(N2CC(n3cc(Cl)c4cc(F)ccc43)C2)n1-c1ccc(OC)nc1` [Example 4, 3-Chloro-1-(1-(5-(ethoxymethyl)-4-(6-methoxypyridin-3-yl)-4H-1,2,4-triazol-3-yl)azetidin-3-yl)-5-fluoro-1H-indole] it was 2.3 µM.
As for `CCOCc1nnc(N2CC(n3cc(C)c4cc(F)ccc43)C2)n1-c1ccc(OC)nc1` [Example 5, 1-(1-(5-(Ethoxymethyl)-4-(6-methoxypyridin-3-yl)-4H-1,2,4-triazol-3-yl)azetidin-3-yl)-5-fluoro-3-methyl-1H-indole], the IC50 in data set [2] was determined as 188 nM.
`COc1ccc(-n2c(C)nnc2N2CC(n3cc(C)c4cc(F)ccc43)C2)cn1` [Example 6, 5-Fluoro-1-(1-(4-(6-methoxypyridin-3-yl)-5-methyl-4H-1,2,4-triazol-3-yl)azetidin-3-yl)-3-methyl-1H-indole]: the IC50 in data set [1] was determined as 4.7 µM.
Still for that read-out and setting: in the case of `COCc1nnc(N2CC(n3cc(C(F)(F)F)c4cc(F)ccc43)C2)n1-c1ccc(OC)nc1` [Example 7, 5-Fluoro-1-(1-(5-(methoxymethyl)-4-(6-methoxypyridin-3-yl)-4H-1,2,4-triazol-3-yl)azetidin-3-yl)-3-(trifluoromethyl)-1H-indole] it was 6.7 µM; in that of `COCc1nnc(N2CC(n3cc(C#N)c4cc(F)ccc43)C2)n1-c1ccc(OC)nc1` [Example 13, 5-Fluoro-1-(1-(5-(methoxymethyl)-4-(6-methoxypyridin-3-yl)-4H-1,2,4-triazol-3-yl)azetidin-3-yl)-1H-indole-3-carbonitrile], 11.9 µM.
As to `COCc1nnc(N2CC(N3CCCc4c(F)cccc43)C2)n1-c1ccc(OC)nc1` [Example 19, 5-Fluoro-1-(1-(5-(methoxymethyl)-4-(6-methoxypyridin-3-yl)-4H-1,2,4-triazol-3-yl)azetidin-3-yl)-1,2,3,4-tetrahydroquinoline], the values for the IC50 in data set [2] and in data set [1] were 41 nM and 2 µM, respectively.
In the same order, the values of `COc1ccc(-n2c(C)nnc2N2CC(N3CCCc4c(F)cccc43)C2)cn1` [Example 20, 5-Fluoro-1-(1-(4-(6-methoxypyridin-3-yl)-5-methyl-4H-1,2,4-triazol-3-yl)azetidin-3-yl)-1,2,3,4-tetrahydroquinoline] are 104 nM and 3.1 µM.
In the same order, the values of `COCc1nnc(N2CC(N3CCOc4c(F)cccc43)C2)n1-c1ccc(OC)nc1` [Example 22, 8-Fluoro-4-(1-(5-(methoxymethyl)-4-(6-methoxypyridin-3-yl)-4H-1,2,4-triazol-3-yl)azetidin-3-yl)-3,4-dihydro-2H-benzo[b][1,4]oxazine] are 177 nM and 7.5 µM.
Regarding `COCc1nnc(N2CC(n3ccc4cc(F)ccc43)C2)n1-c1ccc(OC)nc1` [Example 25, 5-Fluoro-1-(1-(5-(methoxymethyl)-4-(6-methoxypyridin-3-yl)-4H-1,2,4-triazol-3-yl)azetidin-3-yl)-1H-indole], in data set [2], the IC50 was determined as 23 nM.
On to `COCc1nnc(N2CC(N3CCCc4cc(F)ccc43)C2)n1-c1ccc2c(c1)OCO2` [Example 28, 1-(1-(4-(Benzo[d][1,3]dioxolan-5-yl)-5-(methoxymethyl)-4H-1,2,4-triazol-3-yl)azetidin-3-yl)-6-fluoro-1,2,3,4-tetrahydroquinoline], for which the IC50 in data set [2] was determined as 231 nM; in data set [1], 2.4 µM.
For orientation: AUC means concentration integrated over time. For orientation: MRT means a mean duration of stay, worked out from the concentration-time curve. In the case of `COc1ccc(-n2c(COC(F)F)nnc2N2CC(n3cc(C)c4cc(F)ccc43)C2)cn1` [Example 34, 1-(1-(5-((Difluoromethoxy)methyl)-4-(6-methoxypyridin-3-yl)-4H-1,2,4-triazol-3-yl)azetidin-3-yl)-5-fluoro-3-methyl-1H-indole], the IC50 in data set [2] is 8 nM. Besides, in data set [3], the Vd/F is 17.8 ± 3.33 L/kg, the AUC came out at 5330 ± 981 ng·h/mL, the CL/F was found to be 95.8 ± 16 mL/min/kg and the half-life is 130 ± 20.7 min. In addition, in data set [3], the Cmax is 1070 ± 252 ng/mL and the MRT stood at 3.84 ± 1.08 h.
Regarding `COc1ccc(-n2c(C(F)F)nnc2N2CC(N3CCOc4cc(F)ccc43)C2)cn1` [Example 35, 4-(1-(5-(Difluoromethyl)-4-(6-methoxypyridin-3-yl)-4H-1,2,4-triazol-3-yl)azetidin-3-yl)-7-fluoro-3,4-dihydro-2H-benzo[b][1,4]oxazine], the results for the IC50 in data set [2] and in data set [1] were 181 nM and 14.1 µM, respectively.
Consider `COC(=O)NCc1nnc(N2CC(N3CCCc4cc(F)ccc43)C2)n1-c1ccc(OC)nc1` [Example 36, Methyl ((5-(3-(6-fluoro-3,4-dihydroquinolin-1(2H)-yl)azetidin-1-yl)-4-(6-methoxypyridin-3-yl)-4H-1,2,4-triazol-3-yl)methyl)carbamate], for which the IC50 in data set [2] amounted to 124 nM; in data set [1], 2.1 µM.
As to `COc1ccc(-n2c(COC(F)F)nnc2N2CC(N3CCOc4cc(F)ccc43)C2)cn1` [Example 37, 4-(1-(5-((Difluoromethoxy)methyl)-4-(6-methoxypyridin-3-yl)-4H-1,2,4-triazol-3-yl)azetidin-3-yl)-7-fluoro-3,4-dihydro-2H-benzo[b][1,4]oxazine], the IC50 in data set [2] was determined as 4 nM. Besides, the IC50 in data set [1] was found to be 1.7 µM. In data set [3], the Vd/F came to 56.3 ± 66 L/kg, the AUC was determined as 8180 ± 9850 ng·h/mL, the CL/F is 201 ± 223 mL/min/kg and the half-life is 177 ± 25.2 min. Moreover, in data set [3], the Cmax came to 1120 ± 950 ng/mL and the MRT was determined as 4.9 ± 1.36 h.
As to `COc1ccc(-n2c(CO)nnc2N2CC(c3cccc4cc(F)ccc34)C2)cn1` [Example 41, (5-(3-(6-Fluoronaphthalen-1-yl)azetidin-1-yl)-4-(6-methoxypyridin-3-yl)-4H-1,2,4-triazol-3-yl)methanol], the IC50 in data set [2] is 150 nM; in data set [1] it was 9 µM.
The like results for `COCc1nnc(N2CC(N3CCC(C)(C)c4cc(F)ccc43)C2)n1-c1ccc(OC)nc1` [Example 42, 6-Fluoro-1-(1-(5-(methoxymethyl)-4-(6-methoxypyridin-3-yl)-4H-1,2,4-triazol-3-yl)azetidin-3-yl)-4,4-dimethyl-1,2,3,4-tetrahydroquinoline] were, in that order, 23 nM and 4.5 µM.
